# According to paper PMC6600370 (International Journal of Molecular Sciences, 2019):
# Legend:
# [1] = molecular target: T1, Xanthine oxidase (from bovine milk) (Bos taurus, UniProt P80457); experiment: XO assay with 6-MP substrate (6-thiouric acid formation, HPLC); assay type: biochemical; settings: for Effect on 6-TU formation at 20 μM: 20 μM test compound; for Effect on 6-TU formation at 3 μM: 3 μM test compound; for IC50 (6-MP)/IC50 (Xanthine): ratio of IC50 values, both substrates 5 μM; for Effect on 6-TU formation at 0.25 μM: 0.25 μM test compound
# T1 construct: Xanthine oxidase (from bovine milk); purchased Sigma-Aldrich; host or cells: bovine milk (natural source)
# T1 sequence (P80457 whole entry): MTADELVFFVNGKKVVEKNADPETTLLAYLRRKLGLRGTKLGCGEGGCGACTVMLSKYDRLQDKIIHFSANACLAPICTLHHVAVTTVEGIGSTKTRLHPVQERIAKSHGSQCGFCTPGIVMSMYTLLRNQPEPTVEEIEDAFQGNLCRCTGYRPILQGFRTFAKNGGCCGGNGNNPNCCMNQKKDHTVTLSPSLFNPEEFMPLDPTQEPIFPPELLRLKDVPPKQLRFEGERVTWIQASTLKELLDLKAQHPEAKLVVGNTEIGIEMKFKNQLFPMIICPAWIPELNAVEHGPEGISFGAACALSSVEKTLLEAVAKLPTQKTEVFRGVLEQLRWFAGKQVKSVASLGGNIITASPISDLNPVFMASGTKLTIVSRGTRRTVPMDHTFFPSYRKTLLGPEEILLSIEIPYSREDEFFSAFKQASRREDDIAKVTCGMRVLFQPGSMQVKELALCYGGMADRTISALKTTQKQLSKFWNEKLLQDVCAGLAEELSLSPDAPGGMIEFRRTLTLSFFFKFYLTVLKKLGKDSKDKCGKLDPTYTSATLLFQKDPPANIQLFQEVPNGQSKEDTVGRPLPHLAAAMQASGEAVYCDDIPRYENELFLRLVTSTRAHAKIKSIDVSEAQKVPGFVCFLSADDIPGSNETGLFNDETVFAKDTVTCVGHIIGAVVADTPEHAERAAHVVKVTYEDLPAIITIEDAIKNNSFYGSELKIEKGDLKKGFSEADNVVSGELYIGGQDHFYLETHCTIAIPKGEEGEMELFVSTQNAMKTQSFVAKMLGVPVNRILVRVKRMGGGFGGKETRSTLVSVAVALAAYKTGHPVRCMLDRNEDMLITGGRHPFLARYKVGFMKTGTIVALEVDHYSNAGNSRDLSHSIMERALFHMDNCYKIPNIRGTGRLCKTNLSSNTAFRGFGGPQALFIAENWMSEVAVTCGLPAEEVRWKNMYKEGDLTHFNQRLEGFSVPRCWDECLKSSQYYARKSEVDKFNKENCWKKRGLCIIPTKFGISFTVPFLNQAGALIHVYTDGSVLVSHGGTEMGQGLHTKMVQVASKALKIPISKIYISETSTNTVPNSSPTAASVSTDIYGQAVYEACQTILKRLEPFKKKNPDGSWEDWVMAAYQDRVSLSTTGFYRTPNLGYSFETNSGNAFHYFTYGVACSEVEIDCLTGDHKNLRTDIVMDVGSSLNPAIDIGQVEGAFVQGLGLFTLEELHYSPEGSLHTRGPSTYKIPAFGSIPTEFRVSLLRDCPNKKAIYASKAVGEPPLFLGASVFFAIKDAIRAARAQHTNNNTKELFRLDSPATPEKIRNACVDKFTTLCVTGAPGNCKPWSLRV
# Description: The incubations were carried out in 0.05 M sodium phosphate buffer (pH 7.5; final volume of incubates: 500 μL). The reaction started with the addition of the enzyme, and was stopped with 30 μL of 6 M HClO4 20, 40, or 60 min later. Thereafter, the samples were vortexed and centrifuged at 14,000× g for 5 min at room temperature. A 300-μL aliquot of the supernatant was carefully removed, after which 36 μL of 1 M KOH was added to these aliquots. Samples were cooled to 4 °C to enhance the precipitation of the formed KClO4, and centrifuged at 14,000× g for 5 min at 4 °C. The supernatants were carefully removed and the substrate together with metabolites were analyzed by HPLC (see details in Section 4.5). 6-MP is oxidized to 6-TX followed by 6-TU in the two-step reaction.
# Quantitation of 6-MP, 6-TX, and 6-TU was performed by the previously described method with minor modifications.
# [2] = tested on: XO; settings: cited from earlier work
# [3] = cited from earlier work; for Therapeutic peak plasma concentrations: single 200 mg oral dose of APU
# [4] = molecular target: T1, Xanthine oxidase (from bovine milk); experiment: XO assay with xanthine substrate (uric acid formation, HPLC); assay type: biochemical; settings: for Effect on uric acid formation at 20 μM: 20 μM test compound (four-fold vs. substrate); for Effect on urate formation at 10 μM: 10 μM flavonoid, 15 min preincubation, 8 min
# Description: Xanthine (5 μM) was incubated with 0.0012 U/mL XO in the absence or presence of inhibitors (0–20 μM). Incubations were started with the addition of the enzyme (final volume of incubates: 500 μL), and stopped after 4, 8, and 12 min with 30 μL of 6 M HClO4. Thereafter, the samples were vortexed, after which 97 μL of 1 M KOH was added, then samples were cooled to 4 °C and centrifuged. Other experimental conditions were the same as described in Section 4.2. Xanthine and uric acid were quantified by HPLC (see details in Section 4.5).
# (§1) Quantification of xanthine, hypoxanthine, and uric acid was performed by the previously described method with minor modifications.
# [5] = molecular target: T1, Xanthine oxidase (from bovine milk); experiment: XO assay with hypoxanthine substrate (xanthine + uric acid formation, HPLC); assay type: biochemical
# Description: The experiments were started with the addition of the enzyme and stopped after 4 min with 30 μL of 6 M HClO4. Other experimental conditions were the same as described in Section 4.3. XO-catalyzed oxidation of hypoxanthine results in the formation of xanthine and uric acid in two consecutive steps.
# as §1
# [6] = cited from earlier work
# [7] = cited from earlier work; remark: listed apart in the source
# [8] = cited from earlier work; remark: listed apart in the source
# [9] = 5 μM xanthine, 8 min incubation, uric acid formation, read-out: Xanthine Oxidation IC50
# [10] = 5 μM 6-MP, 40 min incubation, 6-TU formation, read-out: 6-MP Oxidation IC50
compound,measurement,setting,value
"COc1ccc(CC(=O)O)cc1O [3H4MPAA, 3-Hydroxy-4-methoxyphenylacetic acid]",Effect on 6-TU formation at 20 μM,[1]; 5 μM 6-MP,significant decreases
O=c1c(OS(=O)(=O)O)c(-c2ccc(O)c(O)c2)oc2cc(O)cc(O)c12 [Q-3-sulfate],Inhibition of XO-catalyzed xanthine oxidation,[2],inhibited XO only at very high concentrations
"O=C(O)Cc1ccc(O)cc1 [4HPAA, 4-hydroxyphenylacetic acid]",Effect on 6-TU formation at 20 μM,[1]; 5 μM 6-MP,significant decreases
"Oc1ncnc2[nH]ncc12 [APU, Allopurinol, reference compound]",Therapeutic peak plasma concentrations,[3],35 to 40 µM
same,Effect on 6-TU formation at 3 μM,[1]; 5 μM 6-MP,only a slight effect
"O=C(O)CCc1ccc(O)cc1 [34HPPA, 3-(4-Hydroxyphenyl)propionic acid]",Effect on 6-TU formation at 20 μM,[1]; 5 μM 6-MP,significant decreases
"O=C(O)CCc1cccc(O)c1 [33HPPA, 3-(3-Hydroxyphenyl)propionic acid]",Effect on 6-TU formation at 20 μM,[1]; 5 μM 6-MP,significant decreases
"O=C(O)c1ccc(O)cc1O [24DHBA, 2,4-Dihydroxybenzoic acid]",Effect on 6-TU formation at 20 μM,[1]; 5 μM 6-MP,significant decreases
"O=C(O)c1ccccc1 [BA, Benzoic acid]",Effect on 6-TU formation at 20 μM,[1]; 5 μM 6-MP,significant decreases
"Oc1cccc(O)c1O [PYR, Pyrogallol]",IC50,[4]; [9],1800 nM
same,Effect on uric acid formation at 20 μM,[4]; 5 μM xanthine,inhibited of uric acid formation significantly
same,inhibition at 20 µM,"[4]; 20 μM, 5 μM xanthine, read-out: Inhibitory effect on xanthine oxidation at 20 μM",> 50%
same,IC50,[1]; [10],10100 nM
same,Effect on 6-TU formation at 20 μM,[1]; 5 μM 6-MP,significant decreases
same,inhibition at 20 µM,"[1]; 20 μM, 5 μM 6-MP, read-out: Inhibitory effect on 6-MP oxidation at 20 μM",> 50%
same,IC50 (6-MP)/IC50 (Xanthine),[1],5.61
"O=C(O)CNC(=O)c1ccccc1 [HIPA, Hippuric acid]",Effect on 6-TU formation at 20 μM,[1]; 5 μM 6-MP,significant decreases
"O=C(O)Cc1ccc(CO)cc1 [4HMPAA, 4-(Hydroxymethyl)phenylacetic acid]",Effect on 6-TU formation at 20 μM,[1]; 5 μM 6-MP,significant decreases
"CC(=O)c1ccc(O)cc1O [24DHAP, 2,4-Dihydroxyacetophenon]",Effect on 6-TU formation at 20 μM,[1]; 5 μM 6-MP,significant decreases
O=C(O)[C@H]1O[C@@H](Oc2cc(-c3oc4cc(O)cc(O)c4c(=O)c3O)ccc2O)[C@H](O)[C@@H](O)[C@@H]1O [Q-3′-glucuronide],Inhibition of XO-catalyzed xanthine oxidation,[2],similarly strong inhibitors of xanthine oxidation as Q
O=C(O)[C@H]1O[C@@H](Oc2ccc(-c3oc4cc(O)cc(O)c4c(=O)c3O)cc2O)[C@H](O)[C@@H](O)[C@@H]1O [Q-4′-glucuronide],Inhibition of XO-catalyzed xanthine oxidation,[2],similarly strong inhibitors of xanthine oxidation as Q
"O=C(O)CCc1ccccc1 [3PPA, 3-Phenylpropionic acid]",Effect on 6-TU formation at 20 μM,[1]; 5 μM 6-MP,significant decreases
"COc1cc(-c2oc3cc(O)cc(O)c3c(=O)c2OC2OC(C(=O)O)C(O)C(O)C2O)ccc1O (stereo not drawn) [I3G, Isorhamnetin-3-glucuronide]",IC50,[4]; [9],> 20000 nM
same,Effect on uric acid formation at 20 μM,[4]; 5 μM xanthine,did not inhibit
same,IC50,[1]; [10],> 20000 nM
same,Effect on 6-TU formation at 20 μM,[1]; 5 μM 6-MP,did not inhibit
"O=C(O)C1OC(Oc2c(-c3ccc(O)c(O)c3)oc3cc(O)cc(O)c3c2=O)C(O)C(O)C1O (stereo not drawn) [Q3G, Quercetin-3-glucuronide]",IC50,[4]; [9],> 20000 nM
same,Effect on uric acid formation at 20 μM,[4]; 5 μM xanthine,did not inhibit
same,Inhibition of XO-catalyzed xanthine oxidation,[2],only weak inhibitors
same,IC50,[1]; [10],> 20000 nM
same,Effect on 6-TU formation at 20 μM,[1]; 5 μM 6-MP,did not inhibit
"O=C(O)/C=C/c1cccc(O)c1 [3CA, 3-Coumaric acid]",Effect on 6-TU formation at 20 μM,[1]; 5 μM 6-MP,significant decreases
"COc1ccc(-c2oc3cc(O)cc(O)c3c(=O)c2O)cc1O [TAM, Tamarixetin]",IC50,[4]; [9],200 nM
same,Effect on urate formation at 10 μM,[4]; 5 μM xanthine,almost completely abolished
same,Effect on 6-TU formation at 0.25 μM,[1]; 5 μM 6-MP,significantly decreased
same,Effect on 6-TU formation at 3 μM,[1]; 5 μM 6-MP,almost completely inhibited
same,IC50,[1]; [10],200 nM
same,IC50 (6-MP)/IC50 (Xanthine),[1],1.00
"O=c1c(O)c(-c2ccc(O)c(OS(=O)(=O)O)c2)oc2cc(O)cc(O)c12 [Q3′S, Quercetin-3′-sulfate]",IC50,[4]; [9],400 nM
same,Effect on urate formation at 10 μM,[4]; 5 μM xanthine,almost completely abolished
same,IC50,"[5]; 5 μM hypoxanthine, 4 min incubation, xanthine + uric acid formation, read-out: Hypoxanthine oxidation IC50",210 nM
same,Effect on 6-TU formation at 0.25 μM,[1]; 5 μM 6-MP,significantly decreased
same,Effect on 6-TU formation at 3 μM,[1]; 5 μM 6-MP,almost completely inhibited
same,IC50,[1]; [10],500 nM
same,IC50 (6-MP)/IC50 (Xanthine),[1],1.25
"COc1ccc(C(=O)O)c(O)c1 [2H4MBA, 4-Methoxysalicylic acid]",Effect on uric acid formation at 20 μM,[4]; 5 μM xanthine,inhibited of uric acid formation significantly
same,Effect on 6-TU formation at 20 μM,[1]; 5 μM 6-MP,significant decreases
"COc1cc(-c2oc3cc(O)cc(O)c3c(=O)c2O)ccc1O [IR, Isorhamnetin]",IC50,[4],700 nM
same,Effect on urate formation at 10 μM,[4]; 5 μM xanthine,almost completely abolished
same,IC50,[1],600 nM
same,Effect on 6-TU formation at 3 μM,[1]; 5 μM 6-MP,almost completely inhibited
same,IC50 (6-MP)/IC50 (Xanthine),[1],0.86
"O=c1c(O)c(-c2ccc(O)c(O)c2)oc2cc(O)cc(O)c12 [Q, Quercetin]",Effect on urate formation at 10 μM,[4]; 5 μM xanthine,almost completely abolished
same,Peak plasma concentrations of total Q,[3]; repeated daily oral administration of 1000 mg Q,low micromolar range
same,"Serum uric acid levels, human",[6]; 1000 or 2000 mg/day,does not influence the serum uric acid levels
same,"Serum urate, human","[6]; four-week treatment, 500 mg/day",minimal reduction in serum urate
same,Oral bioavailability,[7],low
same,Serum urate levels in hyperuricemic mice,"[8]; 100 mg/kg, hyperuricemic mice",decreased the serum urate levels
same,Serum urate levels in normal or hyperuricemic mice,[8]; 400 mg/kg orally administered,failed to decrease the serum urate levels
same,Effect on 6-TU formation at 0.25 μM,[1]; 5 μM 6-MP,only weak inhibitory action
same,Effect on 6-TU formation at 3 μM,[1]; 5 μM 6-MP,almost completely inhibited
"O=C(O)c1ccc(O)cc1 [4HBA, 4-Hydroxybenzoic acid]",Effect on 6-TU formation at 20 μM,[1]; 5 μM 6-MP,significant decreases
"O=C(O)Cc1ccccc1O [2HPAA, 2-Hydroxyphenylacetic acid]",Effect on 6-TU formation at 20 μM,[1]; 5 μM 6-MP,significant decreases
"O=c1[nH]c(=O)c2c[nH]nc2[nH]1 [Oxipurinol, oxipurinol, reference compound]",IC50,[4]; [9],4500 nM
same,Therapeutic peak plasma concentrations,[3],35 to 40 µM
same,IC50,[5],> 3000 nM
same,IC50,[1]; [10],10000 nM
O=C(O)[C@H]1O[C@@H](Oc2cc(O)c3c(=O)c(O)c(-c4ccc(O)c(O)c4)oc3c2)[C@H](O)[C@@H](O)[C@@H]1O [Q-7-glucuronide],Inhibition of XO-catalyzed xanthine oxidation,[2],only weak inhibitors
"O=C(O)CCc1ccc(O)cc1O [324DHPPA, 3-(2,4-Dihydroxyphenyl)propionic acid]",Effect on 6-TU formation at 20 μM,[1]; 5 μM 6-MP,significant decreases
